Source: patent US4226775A, “Substituted thio-substituted benzyl-propionyl-L-prolines” (American Cyanamid Company, priority 1979, dated 1980)

Target: T1, angiotensin converting enzyme (ACE) (Oryctolagus cuniculus, UniProt P12822)
T1 construct: The ACE was extracted from rabbit lung acetane powder (Pel-Freez, Biol. Inc.); tissue Pel-Freez, Biol. Inc; host or cells: rabbit lung acetone powder, crude extract (40,000 g supernatant)
T1 sequence (P12822 34-1310): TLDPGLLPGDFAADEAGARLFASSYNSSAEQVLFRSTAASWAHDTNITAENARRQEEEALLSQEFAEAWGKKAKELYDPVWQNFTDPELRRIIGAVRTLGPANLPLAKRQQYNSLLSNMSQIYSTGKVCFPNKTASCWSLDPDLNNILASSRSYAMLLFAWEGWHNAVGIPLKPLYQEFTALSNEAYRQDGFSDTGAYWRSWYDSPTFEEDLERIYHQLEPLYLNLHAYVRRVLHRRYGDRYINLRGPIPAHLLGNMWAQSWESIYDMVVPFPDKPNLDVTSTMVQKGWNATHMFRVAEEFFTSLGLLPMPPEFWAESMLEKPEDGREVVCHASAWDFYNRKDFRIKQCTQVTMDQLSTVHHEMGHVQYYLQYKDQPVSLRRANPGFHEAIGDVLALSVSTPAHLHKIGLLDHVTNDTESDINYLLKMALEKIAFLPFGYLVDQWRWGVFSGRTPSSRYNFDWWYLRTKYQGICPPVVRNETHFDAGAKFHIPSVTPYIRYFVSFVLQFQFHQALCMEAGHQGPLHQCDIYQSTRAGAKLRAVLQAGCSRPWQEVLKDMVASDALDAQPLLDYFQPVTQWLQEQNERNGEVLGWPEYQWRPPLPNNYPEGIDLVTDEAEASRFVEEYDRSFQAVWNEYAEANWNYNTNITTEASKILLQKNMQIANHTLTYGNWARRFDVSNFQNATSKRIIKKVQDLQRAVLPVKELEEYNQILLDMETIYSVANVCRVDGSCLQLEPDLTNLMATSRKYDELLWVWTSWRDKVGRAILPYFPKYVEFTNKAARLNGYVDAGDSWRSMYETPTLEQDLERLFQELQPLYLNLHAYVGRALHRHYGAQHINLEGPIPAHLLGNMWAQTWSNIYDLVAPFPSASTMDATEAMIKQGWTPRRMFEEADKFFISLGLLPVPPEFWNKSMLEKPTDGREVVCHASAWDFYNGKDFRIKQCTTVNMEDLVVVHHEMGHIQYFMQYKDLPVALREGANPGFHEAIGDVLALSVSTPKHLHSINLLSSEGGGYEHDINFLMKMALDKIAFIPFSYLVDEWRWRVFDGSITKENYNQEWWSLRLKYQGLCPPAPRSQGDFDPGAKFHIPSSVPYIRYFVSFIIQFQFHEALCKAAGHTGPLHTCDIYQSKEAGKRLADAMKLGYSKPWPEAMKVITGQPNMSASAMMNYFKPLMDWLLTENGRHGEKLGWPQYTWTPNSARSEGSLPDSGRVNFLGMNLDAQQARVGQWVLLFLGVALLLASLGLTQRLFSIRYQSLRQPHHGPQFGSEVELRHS
Assay: Spectrophotometric assay for angiotensin converting enzyme inhibitors
Type: biochemical
Details: crude ACE extract from rabbit lung; substrate benzoyl-glycyl-histidyl-leucine; 30 minutes at 37° C.; absorbance at 228 nm
Method: The activity of the novel compounds of this invention as hypotensive agents was established in two systems which measure their ability as angiotensin converting enzyme inhibitors; namely, a spectrophotometric assay of the compounds in vitro and by the measurement of the blood pressure lowering effect of the compounds in the aorta-coarcted renal hypertensive rats.
The in vitro activity for inhibition of the angiotensin converting enzyme (ACE) was measured by the method of Cushman, D. W. and Cheung, H. S., Biochem. Pharmacol. 20, 1637-1648 (1971), using benzoyl-glycyl-histidyl-leucine as the substrate. The reaction mixture consisted of 50 ml. of potassium phosphate (500 mM., […]), […]. of sodium chloride (2500 mM.), 25 ml. of substrate (50 mM), 30 to 50 ml. of the crude extract of ACE, 10 ml. of test compound (2.5 mM) or vehicle and a suitable amount of distilled water to give a total volume of 250 ml. This reaction mixture was incubated for 30 minutes at 37° C. and the reaction was then terminated by the addition of 250 ml. of 1 N hydrochloric acid. The hippuric acid was then extracted with 1.5 ml. of ethyl acetate by vortex mixing for 15 seconds. After centrifugation, 1 ml. of the ethyl acetate layer was pipetted into a new tube and evaporated to dryness. The extracted hippuric acid was then dissolved in 1 ml. of water and the amount of this acid was then measured by its absorbance at 228 nm. The ACE was extracted from rabbit lung acetane powder (Pel-Freez, Biol. Inc.) by blending 5 g. of the powder in 50 ml. of phosphate buffer (50 mM, pH 8.3) and then centrifuging at 40,000 g for 30 minutes. The supernatant was then kept at 5° C. and used as the enzyme source. The activity of the ACE inhibitor was calculated as the percent inhibition of ACE activity compared to the control value of that particular assay. A full dose-response inhibitory curve is then performed to determine the IC50 value which may be defined as the molar concentration of a compound that will inhibit the ACE activity by 50%.

IC50	SMILES
4230 nM	CC(=O)SC(CC(=O)c1ccccc1)C(=O)N1CCC[C@H]1C(=O)O (stereo partly drawn) [1-(2-Acetylthio-3-benzoylpropionyl)-L-proline]
147 nM	CC(=O)SC(C(=O)c1ccccc1)C(C)C(=O)N1CCC[C@H]1C(=O)O (stereo partly drawn) [1-(3-Acetylthio-3-benzoyl-2-methylpropionyl)-L-proline]
455 nM	CC(=O)SC(CC(=O)N1CCC[C@H]1C(=O)O)C(=O)c1ccccc1 (stereo partly drawn) [1-(3-Acetylthio-3-benzoylpropionyl)-L-proline]
513 nM	O=C(SC(CC(=O)N1CCC[C@H]1C(=O)O)C(=O)c1ccccc1)c1ccccc1 (stereo partly drawn) [1-(3-Benzoylthio-3-benzoylpropionyl)-L-proline]
115 nM	O=C(SC(CC(=O)N1CCC[C@H]1C(=O)O)C(=O)c1ccc(Br)cc1)c1ccccc1 (stereo partly drawn) [1-[3-(4-Bromobenzoyl)-3-benzoylthiopropionyl]-L-proline]
352 nM	O=C(c1ccc(Br)cc1)C(S)CC(=O)N1CCC[C@H]1C(=O)O (stereo partly drawn) [1-[3-(4-Bromobenzoyl)-3-thiopropionyl]-L-proline]
5130 nM	O=C(c1cnc(SC(CC(=O)N2CCC[C@H]2C(=O)O)C(=O)c2ccc(Cl)cc2)nc1)c1cccs1 (stereo partly drawn) [1-[3-(4-Chlorobenzoyl)-3-[5-(2-thenoyl)-2-pyrimidinylthio]propionyl]-L-proline]
2780 nM	O=C(c1ccccc1)c1cnc(SC(CC(=O)N2CCC[C@H]2C(=O)O)C(=O)c2ccc(Cl)cc2)nc1 (stereo partly drawn) [1-[3-(5-Benzoyl-2-pyrimidinylthio)-3-(4-chlorobenzoyl)propionyl]-L-proline]
130 nM	CC(=O)SC(CC(=O)N1CCC[C@H]1C(=O)O)C(=O)c1ccc2ccccc2c1 (stereo partly drawn) [1-[3-Acetylthio-3-(2-naphthoyl)propionyl]-L-proline]
600 nM	COc1ccc(C(=O)C(CC(=O)N2CCC[C@H]2C(=O)O)SC(C)=O)cc1F (stereo partly drawn) [1-[3-Acetylthio-3-(3-fluoro-4-methoxybenzoyl)propionyl]-L-proline]
61.7 nM	CC(=O)SC(C(=O)c1cccc(F)c1)C(C)C(=O)N1CCC[C@H]1C(=O)O (stereo partly drawn) [1-[3-Acetylthio-3-(3-fluorobenzoyl)-2-methylpropionyl]-L-proline]
31.6 nM	CC(=O)SC(CC(=O)N1CCC[C@H]1C(=O)O)C(=O)c1cccc(F)c1 (stereo partly drawn) [1-[3-Acetylthio-3-(3-fluorobenzoyl)propionyl]-L-proline]
1070 nM	CC(=O)SC(CC(=O)N1CCC[C@H]1C(=O)O)C(=O)c1cccc(C(F)(F)F)c1 (stereo partly drawn) [1-[3-Acetylthio-3-(3-trifluoromethylbenzoyl)propionyl]-L-proline]
86 nM	CC(=O)SC(CC(=O)N1CCC[C@H]1C(=O)O)C(=O)c1ccc(-c2ccccc2)cc1 (stereo partly drawn) [1-[3-Acetylthio-3-(4-biphenylylcarbonyl)propionyl]-L-proline]
131 nM	CC(=O)SC(CC(=O)N1CCC[C@H]1C(=O)O)C(=O)c1ccc(Br)cc1 (stereo partly drawn) [1-[3-Acetylthio-3-(4-bromobenzoyl)propionyl]-L-proline]
335 nM	CC(=O)SC(C(=O)c1ccc(Cl)cc1)C(C)C(=O)N1CCC[C@H]1C(=O)O (stereo partly drawn) [1-[3-Acetylthio-3-(4-chlorobenzoyl)-2-methylpropionyl]-L-proline]

IC50	SMILES
82.6 nM	CC(=O)SC(CC(=O)N1CCC[C@H]1C(=O)O)C(=O)c1ccc(Cl)cc1 (stereo partly drawn) [1-[3-Acetylthio-3-(4-chlorobenzoyl)propionyl]-L-proline]
473 nM	CC(=O)SC(CC(=O)N1CCC[C@H]1C(=O)O)C(=O)c1ccc(F)cc1 (stereo partly drawn) [1-[3-Acetylthio-3-(4-fluorobenzoyl)propionyl]-L-proline]
183 nM	CC(=O)SC(CC(=O)N1CCC[C@H]1C(=O)O)C(=O)c1ccc(C(C)(C)C)cc1 (stereo partly drawn) [1-[3-Acetylthio-3-(4-tert-butylbenzoyl)propionyl]-L-proline]
31600 nM	O=C(O)CSC(CC(=O)c1ccccc1)C(=O)N1CCC[C@H]1C(=O)O (stereo partly drawn) [1-[3-Benzoyl-2-(carboxymethylthio)propionyl]-L-proline]
1760 nM	O=C(SC(CC(=O)N1CCC[C@H]1C(=O)O)C(=O)c1cccc(F)c1)c1ccccc1 (stereo partly drawn) [1-[3-Benzoylthio-3-(3-fluorobenzoyl)propionyl]-L-proline]
353 nM	O=C(SC(CC(=O)N1CCC[C@H]1C(=O)O)C(=O)c1ccc(F)cc1)c1ccccc1 (stereo partly drawn) [1-[3-Benzoylthio-3-(4-fluorobenzoyl)propionyl]-L-proline]
218 nM	CC(=O)SC(CC(=O)N1CCC[C@H]1C(=O)O)C(=O)c1ccc2c(c1)CCC2 (stereo partly drawn) [1-[3-acetylthio-3-(5-indanylcarbonyl)propionyl]-L-proline]
358 nM	CC(=O)SC(CC(=O)N1CCC[C@H]1C(=O)O)C(=O)c1ccc(Oc2ccc(Cl)cc2)cc1 (stereo partly drawn) [1-{3-Acetylthio-3-[4-(4-chlorophenoxy)benzoyl]-propionyl}-L-proline]
16000 nM	CC(=O)S[C@@H](C(=O)c1cccc(F)c1)[C@H](C)C(=O)N1CCC[C@H]1C(=O)O [[R-(R*,R*)]-1-[3-acetylthio-3-(3-fluorobenzoyl)-2-methylpropionyl]-L-proline]
280000 nM	CC(=O)S[C@H](C(=O)c1cccc(F)c1)[C@H](C)C(=O)N1CCC[C@H]1C(=O)O [[R-(R*,S*)]-1-[3-acetylthio-3-(3-fluorobenzoyl)-2-methylpropionyl]-L-proline]
78 nM	CC(=O)S[C@H](C(=O)c1ccccc1)[C@@H](C)C(=O)N1CCC[C@H]1C(=O)O [[S-(R*,R*)]-1-(3-acetylthio-3-benzoyl-2-methylpropionyl)-L-proline]
233 nM	CC(=O)S[C@H](C(=O)c1cccc(F)c1)[C@@H](C)C(=O)N1CCC[C@H]1C(=O)O [[S-(R*,R*)]-1-[3-acetylthio-3-(3-fluorobenzoyl)-2-methylpropionyl]-L-proline]
133 nM	CC(=O)S[C@H](C(=O)c1ccc(Br)cc1)[C@@H](C)C(=O)N1CCC[C@H]1C(=O)O [[S-(R*,R*)]-1-[3-acetylthio-3-(4-bromobenzoyl)-2-methylpropionyl]-L-proline]
51.5 nM	CC(=O)S[C@@H](C(=O)c1ccccc1)[C@@H](C)C(=O)N1CCC[C@H]1C(=O)O [[S-(R*,S*)]-1-(3-Acetylthio-3-benzoyl-2-methylpropionyl)-L-proline]
37 nM	CC(=O)S[C@@H](C(=O)c1cccc(F)c1)[C@@H](C)C(=O)N1CCC[C@H]1C(=O)O [[S-(R*,S*)]-1-[3-acetylthio-3-(3-fluorobenzoyl)-2-methylpropionyl]-L-proline]
98.5 nM	CC(=O)S[C@@H](C(=O)c1ccc(Br)cc1)[C@@H](C)C(=O)N1CCC[C@H]1C(=O)O [[S-(R*,S*)]-1-[3-acetylthio-3-(4-bromobenzoyl)-2-methylpropionyl]-L-proline]
